Reference: publication PMC6753678, “Fueling Open Innovation for Malaria Transmission-Blocking Drugs: Hundreds of Molecules Targeting Early Parasite Mosquito Stages” (Frontiers in Microbiology, 2019)
Like-named read-outs stand apart in the source and are kept apart here.

What was measured:
HepG2 cells = assay: HepG2 cytotoxicity assay; conditions: for Pb ODA (this manuscript) HepG2 cytoxicity: HepG2 cytotoxicity listed with the Pb ODA data set (this manuscript); for IC50: read-out: HepG2 cytotoxicity assay IC50, dose response confirmation
Method: Briefly, HepG2 cells were seeded onto compound-treated 384 well plates at a density of 2,500 cells per well in Minimal Essential Medium (MEM) plus 10% fetal bovine serum and 1% non-essential amino acids solution (NEAA). Cells were incubated with test compounds or 50 μM doxorubicin (positive) and DSMO (negative) controls at 37°C for 48 h in a humidified 5% CO2 atmosphere. […] Cell viability was then measured in a fluorescent plate reader and percent inhibition calculated with respect to positive and negative controls.

[1] = system: P. berghei ookinete development; conditions: for % inhibition, Replicate A / % inhibition, Replicate B: primary screen at 1 μM
[2] = system: 3D7-strain P. falciparum asexual parasites; assay: P. falciparum asexual growth inhibition assay (Pf GIA); format: cell-based, Plasmodium falciparum; conditions: dose response confirmation; read-out: Pf asexual growth inhibition assays IC50
Method: The asexual activity of active compounds was tested in dose response with parasite lactate dehydrogenase (LDH) activity used as a readout of parasite viability as described in [Gamo et al. (2010)]. Briefly, 3D7-strain P. falciparum asexual parasites were diluted to 0.25% parasitemia, 2% hematocrit in culture medium composed of RPMI medium with 25 mM HEPES, 2% D-sucrose, 0.3% L-glutamine, 150 μM hypoxanthine plus 5% albumax. 25 μl of parasite inoculum was then dispensed into each well of a 384 well plate containing test compounds and positive (50 μM chloroquine) and negative (DMSO) controls. Plates were incubated for 72 h at 37°C in a 5% CO2, 5%O2, 90% N2 environment before being frozen at −70°C. Plates were then thawed and 70 μl of reaction mix (143 mM sodium L-lactate, 143 mM 3-acetyl pyridine adenine dinucleotide, […] Nitro Blue tetrazolium chloride, […] diaphorase (2.83 U/ml), 0.7% Tween 20, 100 mM Tris–HCl pH 8.0) was added to each well using a Multidrop Combi automated dispenser. Plates were shaken to mix and then absorbance at 650 nm was measured after 10 min incubation at room temperature. Percent inhibition of asexual growth was then calculated with respect to positive and negative controls. Data presented is the mean of three independent biological replicates.

[3] = read-out: Pb ODA (this manuscript) IC50, P. berghei ookinete development assay, this manuscript
[4] = read-out: Pb Ookinete development assay IC50, dose response confirmation
[5] = HepG2 values of the three screens unified
[6] = read-out: Pb ODA IC50, this manuscript
[7] = unified HepG2 value across the three screens

| SMILES | Pb ODA (this manuscript) HepG2 cytoxicity (HepG2 cells) [µM] | IC50 (HepG2 cells) [nM] | Is compound selective in assay? Pb ODA active? [1] | % inhibition, Replicate A [1] [%] | % inhibition, Replicate B [1] [%] | IC50 [1, 3] [nM] | IC50 [1, 4] [nM] | IC50 [2] [nM] | HepG2 cytoxicity (Pb ODA, this manuscript) (HepG2 cells) [µM] | Unified cytotox (HepG2 cells; [5]) [µM] | Is compound selective in assay? Pb ODA active? ([1]; 1: YES, 0: NO) | IC50 [1, 6] [nM] | Unified cytotox (HepG2 cells; [7]) [µM] | % inhibition, Replicate A ([1]; 1 µM) [%] | % inhibition, Replicate B ([1]; 1 µM) [%] |
| --- | --- | --- | --- | --- | --- | --- | --- | --- | --- | --- | --- | --- | --- | --- | --- |
| Cc1[nH]c(C)c(-c2ccc(C(F)(F)F)cc2)c(=O)c1Br [TCMDC-137429] | 100.00 | 100000 | 1 (key: 1: YES; 0: NO) | 133.13 | 107.96 | 650 | 648 | 369 |  |  |  |  |  |  |  |
| COc1ccc2nccc([C@@H](O)CN3CCC(NCc4ccc5c(c4)NC(=O)CO5)CC3)c2c1.Cl [TCMDC-140793] | 28.18 | 28200 | 0 (key: 1: YES; 0: NO) | 51.85 | 48.48 | 3630 | 3630 | 721 |  |  |  |  |  |  |  |
| Nc1nc(N)c2c(ccc3c2ccn3Cc2ccccc2)n1 [TCMDC-141977] |  | 150 |  | 47.17 | 65.82 |  | 286 | 1 | 0.15 | 0.15 | 0 (0: NO) | 290 |  |  |  |
| CCOC(=O)NC1=NC(=N)N(OCCCOc2cc(Cl)c(Cl)cc2Cl)C(C)(C)N1 [TCMDC-131741] | 0.001 | 1 | 0 (key: 1: YES; 0: NO) | 60.63 | 47.57 | 5080 | 5080 | < 0.2 |  |  |  |  |  |  |  |
| Cc1[nH]c(C)c(-c2ccc(OCc3ccc(OC(F)(F)F)cc3)nc2)c(=O)c1Br [TCMDC-135254] |  | 87100 |  | 57.86 | 80.15 |  | 1680 | 122 | 87.10 | 87.10 | 1 (1: YES) | 1680 |  |  |  |
| CCN(CC)CCCNc1nccc(N(C)c2ccc(NC(=O)Nc3cc(C(F)(F)F)ccc3F)cc2)n1.O=C(O)C(F)(F)F [TCMDC-141634] |  | 2750 |  | 55.58 | 13.78 |  | 9020 | 811 |  |  | 0 (0: NO) | 9020 | 2.75 |  |  |
| COc1ccc2ncc(F)c(CCN3C4CCC3CC(NCc3ccc5c(c3)OCCO5)C4)c2n1.Cl (stereo not shown) [TCMDC-135638] | 39.81 | 39800 | 0 (key: 1: YES; 0: NO) | 30.43 | 54.56 | 4240 | 4240 | 995 |  |  |  |  |  |  |  |
| Cc1[nH]c(C)c(-c2ccc(-c3ccc(C(F)F)cc3)nc2)c(=O)c1Cl [TCMDC-132329] |  | 100000 |  | 72.54 | 35.56 |  | 7800 | 1440 |  | 100.00 | 1 (1: YES) | 7800 |  |  |  |
| COc1ccc2ncc(C#N)c(CCN3CCC(NCc4ccc5c(n4)NC(=O)CS5)CC3)c2n1.Cl [TCMDC-135188] |  | 55000 |  | 67.48 | 73.91 |  | 768 | 2370 | 54.95 | 54.95 | 1 (1: YES) | 770 |  |  |  |
| O=C(Nc1ccc(N2CCCN(Cc3cccc(F)c3)CC2)cc1)c1cccs1.O=C(O)C(F)(F)F [TCMDC-135012] | 78.52 | 78500 | 1 (key: 1: YES; 0: NO) | 50.47 | 51.73 | 1900 | 1900 | 650 |  |  |  |  |  |  |  |
| O=C(Nc1ccc(OC2CCN(Cc3ccc(F)cc3)CC2)c(Cl)c1)c1cccs1.O=C(O)C(F)(F)F [TCMDC-133746] | 38.90 | 38900 | 1 (key: 1: YES; 0: NO) | 51.32 | 44.22 | 1160 | 1160 | 242 |  |  |  |  |  |  |  |
| Cc1cc(=O)c(-c2ccc(Oc3cccc(C(F)(F)F)c3)cc2)c(C)[nH]1 [TCMDC-133308] | 14.45 | 14400 | 1 (key: 1: YES; 0: NO) |  |  | 730 | 733 | 385 |  |  |  |  |  | 59.11 | 56.29 |
| COc1ccc2nccc(NC(=O)C3(O)CCC(NCc4ccc5c(c4)NCCS5)CC3)c2n1.Cl (stereo not shown) [TCMDC-141406] | 24.27 | 24300 | 1 (key: 1: YES; 0: NO) | 91.89 | 114.20 | 350 | 347 | 1040 |  |  |  |  |  |  |  |
| CCc1cc2c3c(N)nc(N)nc3ccc2n1CC [TCMDC-137851] |  | 22.4 |  | 53.59 | 40.48 |  | 986 | 2.53 | 0.0224 | 0.0224 | 0 (0: NO) | 990 |  |  |  |
| CCC(CC)n1c(COC)cc2c3c(N)nc(N)nc3ccc21 [TCMDC-137313] |  | 1.7 |  | 74.51 | 66.56 |  | 1350 | < 0.2 | 0.0017 | 0.0017 | 0 (0: NO) | 1350 |  |  |  |
| Cc1[nH]c(C)c(-c2ccc(-c3cccc(Cl)c3)nc2)c(=O)c1Br [TCMDC-136160] |  | 100000 |  | 97.52 | 67.64 |  | 2090 | 251 |  | 100.00 | 1 (1: YES) | 2090 |  |  |  |
| Cc1nc2nc(N)nc(N)c2c(C)c1Cc1ccc(N)cc1.Cl [TCMDC-137633] | 0.08 | 80 | 0 (key: 1: YES; 0: NO) | 2.48 | 52.30 | 6210 | 6210 | 287 |  |  |  |  |  |  |  |
| Cc1[nH]c(C)c(-c2ccc(Oc3ccc(F)cc3)cc2)c(=O)c1Br [TCMDC-137402] |  | 3800 |  | 94.48 | 95.56 |  | 57 | 30 | 3.80 | 3.80 | 1 (1: YES) | 56.7 |  |  |  |
| Cc1sc2ncnc(Sc3nc4ccccc4[nH]3)c2c1C [TCMDC-123835] |  | 100000 |  | 69.92 | 40.18 |  | 919 | 748 |  |  | 1 (1: YES) | 920 | 100.00 |  |  |
| O=C(NC1CCN(CC2(c3ccccc3F)CCCC2)CC1)c1ccn[nH]1 [TCMDC-124837] | 41.69 | 41700 | 1 (key: 1: YES; 0: NO) | 77.91 | 70.40 | 1490 | 1490 | 456 |  |  |  |  |  |  |  |
| COc1cccc(Cn2ccc3c4c(N)nc(N)nc4ccc32)c1 [TCMDC-137811] |  | 12.9 |  | 65.46 | 68.96 |  | 1560 | < 0.2 | 0.0129 | 0.0129 | 0 (0: NO) | 1560 |  |  |  |
| Cc1[nH]c(C)c(-c2ccc(OCc3cc(C(F)(F)F)cc(C(F)(F)F)c3)nc2)c(=O)c1Br [TCMDC-135815] |  | 710 |  | 74.97 | 105.72 |  | 122 | 279 | 0.71 | 0.71 | 0 (0: NO) | 120 |  |  |  |
